Experimental data reported in the supplement of paper PMC9663587.

Key:
[1] = compound: CCc1cnn2c(NCc3ccc[n+]([O-])c3)cc(N3CCCC[C@H]3CCO)nc12
LEE011/Ribociclib [2] = compound: T1, CN(C)C(=O)c1cc2cnc(Nc3ccc(N4CCNCC4)cn3)nc2n1C1CCCC1 [LEE011/Ribociclib]
Doxorubicin = compound: COc1cccc2c1C(=O)c1c(O)c3c(c(O)c1C2=O)C[C@@](O)(C(=O)CO)C[C@@H]3O[C@H]1C[C@H](N)[C@H](O)[C@H](C)O1 [Doxorubicin]
Pictilisib/GDC0941 = compound: CS(=O)(=O)N1CCN(Cc2cc3nc(-c4cccc5[nH]ncc45)nc(N4CCOCC4)c3s2)CC1 [Pictilisib/GDC0941]
Ceritinib/LDK378 = compound: Cc1cc(Nc2ncc(Cl)c(Nc3ccccc3S(=O)(=O)C(C)C)n2)c(OC(C)C)cc1C1CCNCC1 [Ceritinib/LDK378]
[3] = compound: Cc1nn(C)c(COc2ccc(N3CCN(S(=O)(=O)N(C)C)CC3)cc2)c1-c1cccc2c(CCCOc3cccc4ccccc34)c(C(=O)O)n(CCN3CCOCC3)c12
YKL-5-124 = compound: C=CC(=O)Nc1ccc(C(=O)Nc2[nH]nc3c2CN(C(=O)N[C@H](CN(C)C)c2ccccc2)C3(C)C)cc1 [YKL-5-124]; assay: increase in dead-cell fraction, 72 h; higher = more death;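 note: breast cancer cell lines in 384-well plates, stained with Hoechst plus LIVE/DEAD far red dye and imaged, cells above an LDR intensity threshold counted dead, Hoechst-negative corpses included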
BSJ-03-123 = compound: CC(=O)c1c(C)c2cnc(Nc3ccc(N4CCN(CCOCCOCCOCCNC(=O)COc5cccc6c5C(=O)N(C5CCC(=O)NC5=O)C6=O)CC4)cn3)nc2n(C2CCCC2)c1=O [BSJ-03-123]; assay: as above
[4] = compound: CC(=O)c1c(C)c2cnc(Nc3ccc(N4CCNCC4)cn3)nc2n(C2CCCC2)c1=O; assay: as above
[5] = compound: CCN1CCN(Cc2ccc(Nc3ncc(F)c(-c4cc(F)c5nc(C)n(C(C)C)c5c4)n3)nc2)CC1; assay: as above
Neratinib/HKI272 = compound: CCOc1cc2ncc(C#N)c(Nc3ccc(OCc4ccccn4)c(Cl)c3)c2cc1NC(=O)/C=C/CN(C)C [Neratinib/HKI272]; assay: as above
[6] = compound: CCc1cnn2c(NCc3ccc[n+]([O-])c3)cc(N3CCCC[C@H]3CCO)nc12; assay: as above
LEE011/Ribociclib [7] = compound: T1, LEE011/Ribociclib; assay: as above
THZ531 = compound: CN(C)C/C=C/C(=O)Nc1ccc(C(=O)N2CCC[C@@H](Nc3ncc(Cl)c(-c4c[nH]c5ccccc45)n3)C2)cc1 [THZ531]; assay: as above
THZ1 = compound: CN(C)C/C=C/C(=O)Nc1ccc(C(=O)Nc2cccc(Nc3ncc(Cl)c(-c4c[nH]c5ccccc45)n3)c2)cc1 [THZ1]; assay: as above
Flavopiridol = compound: CN1CC[C@H](c2c(O)cc(O)c3c(=O)cc(-c4ccccc4Cl)oc23)[C@H](O)C1 [Flavopiridol]; assay: as above
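Throughout, for GR50, 72 h: breast cancer and non-malignant breast epithelial cell lines, Deep Dye Drop or Dye Drop imaging, nine half-log doses, GR normalized to time-zero plates and DMSO-only controls.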

## SUM159
[1]
  GR50, 72 h: 0.0169 µM
LEE011/Ribociclib [2]
  GR50, 72 h: 9.31 µM
Doxorubicin
  GR50, 72 h: 0.021 µM
Pictilisib/GDC0941
  GR50, 72 h: 4.53 µM
Ceritinib/LDK378
  GR50, 72 h: 2.1 µM
[3]
  GR50, 72 h: > 10 µM
YKL-5-124; 0.001 µM
  increase in dead-cell fraction: 0.08
YKL-5-124; 0.003162 µM
  increase in dead-cell fraction: 0.19
YKL-5-124; 0.01 µM
  increase in dead-cell fraction: 0.247
YKL-5-124; 0.03162 µM
  increase in dead-cell fraction: 0.231
YKL-5-124; 0.1 µM
  increase in dead-cell fraction: 0.221
YKL-5-124; 0.3162 µM
  increase in dead-cell fraction: 0.273
YKL-5-124; 1 µM
  increase in dead-cell fraction: 0.246
YKL-5-124; 3.162 µM
  increase in dead-cell fraction: 0.332
YKL-5-124; 10 µM
  increase in dead-cell fraction: 0.436
BSJ-03-123; 0.001 µM
  increase in dead-cell fraction: -0.0023
BSJ-03-123; 0.003162 µM
  increase in dead-cell fraction: 0.0027
BSJ-03-123; 0.01 µM
  increase in dead-cell fraction: -0.003
BSJ-03-123; 0.03162 µM
  increase in dead-cell fraction: 0.0063
BSJ-03-123; 0.1 µM
  increase in dead-cell fraction: 0.0055
BSJ-03-123; 0.3162 µM
  increase in dead-cell fraction: 0.0076
BSJ-03-123; 1 µM
  increase in dead-cell fraction: 0.0134
BSJ-03-123; 3.162 µM
  increase in dead-cell fraction: 0.0322
BSJ-03-123; 10 µM
  increase in dead-cell fraction: 0.28
[4]; 0.0003162 µM
  increase in dead-cell fraction: 0
[4]; 0.001 µM
  increase in dead-cell fraction: 0.0001
[4]; 0.003162 µM
  increase in dead-cell fraction: -0.0023
[4]; 0.01 µM
  increase in dead-cell fraction: -0.0027
[4]; 0.03162 µM
  increase in dead-cell fraction: -0.009
[4]; 0.1 µM
  increase in dead-cell fraction: -0.0094
[4]; 0.3162 µM
  increase in dead-cell fraction: -0.0078
[4]; 1 µM
  increase in dead-cell fraction: -0.0049
[4]; 3.162 µM
  increase in dead-cell fraction: -0.0004
[5]; 0.001 µM
  increase in dead-cell fraction: -0.0002
[5]; 0.003162 µM
  increase in dead-cell fraction: -0.0043
[5]; 0.01 µM
  increase in dead-cell fraction: -0.0052
[5]; 0.03162 µM
  increase in dead-cell fraction: -0.0042
[5]; 0.1 µM
  increase in dead-cell fraction: 0.0006
[5]; 0.3162 µM
  increase in dead-cell fraction: 0.0029
[5]; 1 µM
  increase in dead-cell fraction: 0.0118
[5]; 3.162 µM
  increase in dead-cell fraction: 0.0126
[5]; 10 µM
  increase in dead-cell fraction: 0.447
Neratinib/HKI272; 0.0003162 µM
  increase in dead-cell fraction: -0.005
Neratinib/HKI272; 0.001 µM
  increase in dead-cell fraction: -0.0025
Neratinib/HKI272; 0.003162 µM
  increase in dead-cell fraction: -0.0041
Neratinib/HKI272; 0.01 µM
  increase in dead-cell fraction: -0.0075
Neratinib/HKI272; 0.03162 µM
  increase in dead-cell fraction: -0.0087
Neratinib/HKI272; 0.1 µM
  increase in dead-cell fraction: -0.0118
Neratinib/HKI272; 0.3162 µM
  increase in dead-cell fraction: -0.0133
Neratinib/HKI272; 1 µM
  increase in dead-cell fraction: -0.01
Neratinib/HKI272; 3.162 µM
  increase in dead-cell fraction: -0.004
[6]; 0.0001 µM
  increase in dead-cell fraction: -0.0009
[6]; 0.0003162 µM
  increase in dead-cell fraction: -0.0008
[6]; 0.001 µM
  increase in dead-cell fraction: -0.0012
[6]; 0.003162 µM
  increase in dead-cell fraction: 0.0013
[6]; 0.01 µM
  increase in dead-cell fraction: 0.0076
[6]; 0.03162 µM
  increase in dead-cell fraction: 0.299
[6]; 0.1 µM
  increase in dead-cell fraction: 0.226
[6]; 0.3162 µM
  increase in dead-cell fraction: 0.238
[6]; 1 µM
  increase in dead-cell fraction: 0.246
LEE011/Ribociclib [7]; 0.001 µM
  increase in dead-cell fraction: -0.0013
LEE011/Ribociclib [7]; 0.003162 µM
  increase in dead-cell fraction: 0.0006
LEE011/Ribociclib [7]; 0.01 µM
  increase in dead-cell fraction: 0.0082
LEE011/Ribociclib [7]; 0.03162 µM
  increase in dead-cell fraction: 0.013
LEE011/Ribociclib [7]; 0.1 µM
  increase in dead-cell fraction: 0.0057
LEE011/Ribociclib [7]; 0.3162 µM
  increase in dead-cell fraction: 0.0121
LEE011/Ribociclib [7]; 1 µM
  increase in dead-cell fraction: 0.0033
LEE011/Ribociclib [7]; 3.162 µM
  increase in dead-cell fraction: 0.0075
LEE011/Ribociclib [7]; 10 µM
  increase in dead-cell fraction: 0.0212
THZ531; 0.0001 µM
  increase in dead-cell fraction: 0.0035
THZ531; 0.0003162 µM
  increase in dead-cell fraction: -0.0023
THZ531; 0.001 µM
  increase in dead-cell fraction: -0.002
THZ531; 0.003162 µM
  increase in dead-cell fraction: -0.003
THZ531; 0.01 µM
  increase in dead-cell fraction: 0.0062
THZ531; 0.03162 µM
  increase in dead-cell fraction: -0.0033
THZ531; 0.1 µM
  increase in dead-cell fraction: -0.0055
THZ531; 0.3162 µM
  increase in dead-cell fraction: -0.0016
THZ531; 1 µM
  increase in dead-cell fraction: 0.0161
THZ1; 0.0001 µM
  increase in dead-cell fraction: -0.005
THZ1; 0.0003162 µM
  increase in dead-cell fraction: -0.0055
THZ1; 0.001 µM
  increase in dead-cell fraction: -0.0004
THZ1; 0.003162 µM
  increase in dead-cell fraction: -0.0006
THZ1; 0.01 µM
  increase in dead-cell fraction: 0.001
THZ1; 0.03162 µM
  increase in dead-cell fraction: 0.0024
THZ1; 0.1 µM
  increase in dead-cell fraction: 0.0084
THZ1; 0.3162 µM
  increase in dead-cell fraction: 0.0412
THZ1; 1 µM
  increase in dead-cell fraction: 0.212
Flavopiridol; 0.0001 µM
  increase in dead-cell fraction: -0.0034
Flavopiridol; 0.0003162 µM
  increase in dead-cell fraction: -0.0008
Flavopiridol; 0.001 µM
  increase in dead-cell fraction: -0.0034
Flavopiridol; 0.003162 µM
  increase in dead-cell fraction: -0.0003
Flavopiridol; 0.01 µM
  increase in dead-cell fraction: -0.0024
Flavopiridol; 0.03162 µM
  increase in dead-cell fraction: 0.012
Flavopiridol; 0.1 µM
  increase in dead-cell fraction: 0.0436
Flavopiridol; 0.3162 µM
  increase in dead-cell fraction: 0.205
Flavopiridol; 1 µM
  increase in dead-cell fraction: 0.208
